Here are results for 1 compound from US20020044973A1, “MICROPARTICLES AND THEIR USE IN CANCER TREATMENT” (priority 1997, published 2002).

In one test the test system is C170HM2. Briefly: Example 5: liver tumour weight in tumour-bearing mice, loaded HSAMs vs free doxorubicin. Format: in vivo. The settings on record: 0.24 mg/kg loaded HSAMs or 0.25 mg/kg free doxorubicin; dosing at day 27, termination at day 41; 12 mice per group. How it is done: 0.24 mg/kg doxorubicin-loaded HSAMs (drug loading approx. 1% w/w) were administered to a group of tumour-bearing mice (C170HM2). A further group received HSAMs, at a protein concentration of 100 mg/ml, as a control. A third group received 0.25 mg/kg free doxorubicin. There were 12 mice per group. Dosing was at day 27, termination at day 41.
For the control, the mean liver tumour weight was c. 1.3 g. Following administration of free doxorubicin, the mean weight was c. 0.3 g.

Another test deals with MCF7/Dox cell line. Briefly: Cytotoxicity in doxorubicin-resistant P-glycoprotein expressing daughter cell line (cell counting, Coulter Counter). Format: cell-based. The note with it: Homo sapiens, 24 hours incubation, further 72 hours before counting, microspheres expressed as μg doxorubicin per ml.

Converted amounts (≈) assume the structure as drawn.

Experimental for MCF7/Dox cell line: More specifically, the experiment compared the cytotoxicity of a novel preparation of doxorubicin covalently-linked to a human serum albumin microsphere carrier between 2 and 3 μm in diameter on a doxorubicin-sensitive human breast cancer cell line and its doxorubicin-resistant P-glycoprotein expressing daughter cell line. […] The human MCF7 cell line and its doxorubicin-resistant daughter cell line, MCF7/Dox were used.
The medium was then changed, cells were incubated for a further 72 hours before harvesting and counting with a Coulter Counter.

One may read the IC50 as the concentration that inhibits the measured activity by half. High values mean lower potency, low ones higher potency. Turning to `COc1cccc2c1C(=O)c1c(O)c3c(c(O)c1C2=O)C[C@@](O)(C(=O)CO)C[C@@H]3O[C@H]1C[C@H](N)[C@H](O)[C@H](C)O1` [doxorubicin], the “mean liver tumour weight” value in the test on C170HM2 is listed as around 0.3 g. The same compound registered an IC50 with MCF7/Dox cell line of 0.387 µg/mL (≈ 0.712 µM).
